{
  "source": "paper PMC9138994",
  "about": "(Biomolecules, 2022)",
  "target": "T1, hH1R (Homo sapiens, UniProt P35367)",
  "T1 construct": "expressed in transfected cells; host or cells: CHO-K1",
  "T1 sequence (P35367 whole entry)": "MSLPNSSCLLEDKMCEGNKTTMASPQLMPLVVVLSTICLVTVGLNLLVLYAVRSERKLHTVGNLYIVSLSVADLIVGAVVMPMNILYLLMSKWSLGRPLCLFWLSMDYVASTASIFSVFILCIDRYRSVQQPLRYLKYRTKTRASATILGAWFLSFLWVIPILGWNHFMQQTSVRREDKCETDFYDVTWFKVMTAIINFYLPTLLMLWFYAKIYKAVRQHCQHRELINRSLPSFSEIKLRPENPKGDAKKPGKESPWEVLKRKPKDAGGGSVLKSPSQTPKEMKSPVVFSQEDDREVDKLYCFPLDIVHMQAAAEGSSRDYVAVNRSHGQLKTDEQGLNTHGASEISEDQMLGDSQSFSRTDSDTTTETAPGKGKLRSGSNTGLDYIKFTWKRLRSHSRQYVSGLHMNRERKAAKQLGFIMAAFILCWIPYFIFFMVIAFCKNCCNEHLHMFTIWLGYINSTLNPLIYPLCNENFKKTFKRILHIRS",
  "experiment": "[3H]-pyrilamine displacement assay at histamine H1R (CHO-K1 cells)",
  "assay_type": "binding",
  "settings": "CHO-K1 cells stably expressing human H1R; [3H]-pyrilamin; read-out: Ki (n), H1R",
  "description": "To determine the human H1R affinity, compounds and reference substances were tested in a [^3H]-pyrilamine displacement assay. The assay was conducted with membrane preparations of CHO-K1 cells stably expressing hH1R. Transfection, cell culture, and membrane preparation were described in detail by Smit and colleagues. For the competition binding assay, membrane fractions (40 μg/well in a final volume of 0.2 mL binding buffer) were incubated with [^3H]-pyrilamine (1 nM) and the test compounds in different concentrations for 120 min at r.t. under shaking. The experimental assays were carried out in triplicate with at least six appropriate concentrations between 0.1 nM and 100 μM for the test compounds. Nonspecific binding was evaluated in the presence of the standard H1R antagonist chlorpheniramine hydrogen maleate at a concentration of 10 µM. The following steps were performed as described before.",
  "data": [
    {"smiles": "CN1CCC(N(Cc2ccc(F)cc2)C(=O)NCc2ccc(OCCCN3CCCCC3)cc2)CC1", "note": "[ST-2300, 1-(4-Fluorobenzyl)-1-(1-methylpiperidin-4-yl)-3-{4-[3-(piperidin-1-yl)propoxy]benzyl}urea]", "values": [
      {"measurement": "Ki", "value": "> 5", "unit": "µM"}
    ]}
  ]
}
